The values that follow are results of earlier work, collected in patent US20250186494A1, “CAR-T THERAPIES TARGETED VIA COVALENTLY BONDED ADAPTERS” (THE SCRIPPS RESEARCH INSTITUTE, priority 2023, published 2025).

The data set concerns the target PSMA (Homo sapiens, UniProt Q04609). Conditions: already known targeting moiety.

SMILES strings stand for the structures.

Sequence of PSMA (Q04609 whole entry): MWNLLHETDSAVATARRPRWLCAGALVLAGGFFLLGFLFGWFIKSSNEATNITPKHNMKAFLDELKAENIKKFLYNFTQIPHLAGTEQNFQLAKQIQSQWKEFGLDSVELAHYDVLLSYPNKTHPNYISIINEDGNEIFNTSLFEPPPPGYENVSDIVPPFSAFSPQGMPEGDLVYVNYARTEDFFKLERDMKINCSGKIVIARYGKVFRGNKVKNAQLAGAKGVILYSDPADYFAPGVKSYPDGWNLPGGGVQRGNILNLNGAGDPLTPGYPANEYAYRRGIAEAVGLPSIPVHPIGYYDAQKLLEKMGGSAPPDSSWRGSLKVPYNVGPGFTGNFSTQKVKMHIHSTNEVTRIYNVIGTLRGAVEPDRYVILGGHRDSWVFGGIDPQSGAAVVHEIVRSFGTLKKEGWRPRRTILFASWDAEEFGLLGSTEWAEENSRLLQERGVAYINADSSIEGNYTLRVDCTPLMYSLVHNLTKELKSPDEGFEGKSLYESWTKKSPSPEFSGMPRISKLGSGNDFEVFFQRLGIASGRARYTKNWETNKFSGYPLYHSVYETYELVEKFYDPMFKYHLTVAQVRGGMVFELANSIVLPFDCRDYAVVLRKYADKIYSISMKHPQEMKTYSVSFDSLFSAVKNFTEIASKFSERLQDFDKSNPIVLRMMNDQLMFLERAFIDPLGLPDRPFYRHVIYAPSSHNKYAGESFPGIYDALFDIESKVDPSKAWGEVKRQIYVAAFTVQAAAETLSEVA

As to `O=C(O)CCC(NC(=O)NC(CCC(=O)O)C(=O)O)C(=O)O` (stereo not shown) [DUPA, 2-[3-(1,3-dicarboxypropyl)ureido]pentanedioic acid], the “affinity for PSMA” value is reported as “nM affinity”.
